According to patent publication US5218096A, “Lactoneotrehalose, and its preparation and uses” (Kabushiki Kaisha Hayashibara Seibutsu Kagaku Kenkyujo, priority 1990, dated 1993):
In brackets after ≈: the same amount, converted by molar mass. Like-named read-outs stand apart in the source and are kept apart here.

Assays:
[1] = Heat of dissolution; assay type: physicochemical
[2] = Coloring reaction; assay type: physicochemical
[3] = system: mice; experiment: Acute toxicity test, oral
Source text: A crystalline lactoneotrehalose specimen, prepared by the method in Experiment 1, was orally administered to 7 week-old dd mice for acute toxicity test.

[4] = Solubility; assay type: physicochemical
[5] = Acidity of aqueous solution; assay type: physicochemical
[6] = Digestion test in vitro, hydrolysis rate; assay type: in vitro ADME; conditions: salivary amylase, read-out: hydrolysis rate (the ratio of reducing sugars against total sugars)
Protocol: (§2) In accordance with the method reported in Okada et al., Journal of Japanese Society of Nutrition and Food Science, Vol.43, No.1, pp.23-29 (1990), a crystalline lactoneotrehalose specimen prepared by the method in Experiment 1 was tested for its digestibility in vitro, and the digestibility was evaluated based on the hydrolysis rate (the ratio of reducing sugars against total sugars).

[7] = Digestion test in vitro, hydrolysis rate; assay type: in vitro ADME; conditions: gastric juice, read-out: hydrolysis rate (the ratio of reducing sugars against total sugars)
Protocol: as §2

[8] = Digestion test in vitro, hydrolysis rate; assay type: in vitro ADME; conditions: amylopsin, read-out: hydrolysis rate (the ratio of reducing sugars against total sugars)
Protocol: as §2

[9] = Hygroscopicity, deliquescence and moisture content; assay type: physicochemical
Source text: (9) Physical properties and color Colorless and transparent crystal having a true specific gravity of 1.59.

[10] = system: microorganisms of the genus Bifidobacterium; experiment: Assimilation by intestinal microorganism, overall finding; assay type: cell-based; conditions: conclusion from Table 3
Protocol: (§1) The resultant broth was diluted 5-fold, and the turbidity of the diluted solution was determined at 750 nm in 1-cm cell cuvette. The growth of the intestinal microorganisms and the assimilability of lactoneotrehalose were both evaluated with the turbidity. As control, glucose and lactose were used in place of lactoneotrehalose.

[11] = system: Lactobacillus plantarum IFO 3070; experiment: Assimilation by intestinal microorganism; assay type: cell-based; conditions: 0.5 w/v % saccharide, PYF broth, 37° C., 96 hours
Protocol: as §1

[12] = system: Peptostreptococcus prevotii ATCC 9321; experiment: Assimilation by intestinal microorganism; assay type: cell-based; conditions: 0.5 w/v % saccharide, PYF broth, 37° C., 96 hours
Protocol: as §1

[13] = system: Eubacterium limosum JCM 6421; experiment: Assimilation by intestinal microorganism; assay type: cell-based; conditions: 0.5 w/v % saccharide, PYF broth, 37° C., 96 hours
Protocol: as §1

[14] = system: Escherichia coli IFO 3301; experiment: Assimilation by intestinal microorganism; assay type: cell-based; conditions: 0.5 w/v % saccharide, PYF broth, 37° C., 96 hours
Protocol: as §1

[15] = system: Bifidobacterium breve JCM 1192; experiment: Assimilation by intestinal microorganism; assay type: cell-based; conditions: 0.5 w/v % saccharide, PYF broth, 37° C., 96 hours
Protocol: as §1

[16] = system: Bifidobacterium infantis JCM 1222; experiment: Assimilation by intestinal microorganism; assay type: cell-based; conditions: 0.5 w/v % saccharide, PYF broth, 37° C., 96 hours
Protocol: as §1

[17] = system: Streptococcus faecalis IAM 10065; experiment: Assimilation by intestinal microorganism; assay type: cell-based; conditions: 0.5 w/v % saccharide, PYF broth, 37° C., 96 hours
Protocol: as §1

[18] = system: Bifidobacterium longum JCM 1217; experiment: Assimilation by intestinal microorganism; assay type: cell-based; conditions: 0.5 w/v % saccharide, PYF broth, 37° C., 96 hours
Protocol: as §1

[19] = system: Eubacterium aerofaciens ATCC 25986; experiment: Assimilation by intestinal microorganism; assay type: cell-based; conditions: 0.5 w/v % saccharide, PYF broth, 37° C., 96 hours
Protocol: as §1

[20] = system: Bifidobacterium animalis JCM 1190; experiment: Assimilation by intestinal microorganism; assay type: cell-based; conditions: 0.5 w/v % saccharide, PYF broth, 37° C., 96 hours
Protocol: as §1

[21] = system: Lactobacillus acidophilus JCM 1132; experiment: Assimilation by intestinal microorganism; assay type: cell-based; conditions: 0.5 w/v % saccharide, PYF broth, 37° C., 96 hours
Protocol: as §1

[22] = system: Bacteroides distasonis JCM 5825; experiment: Assimilation by intestinal microorganism; assay type: cell-based; conditions: 0.5 w/v % saccharide, PYF broth, 37° C., 96 hours
Protocol: as §1

[23] = system: Bifidobacterium adolescentis JCM 1275; experiment: Assimilation by intestinal microorganism; assay type: cell-based; conditions: 0.5 w/v % saccharide, PYF broth, 37° C., 96 hours
Protocol: as §1

[24] = system: Clostridium sporogenes JCM 1416; experiment: Assimilation by intestinal microorganism; assay type: cell-based; conditions: 0.5 w/v % saccharide, PYF broth, 37° C., 96 hours
Protocol: as §1

[25] = Digestion test in vitro, hydrolysis rate; assay type: in vitro ADME; conditions: small intestinal mucosa enzyme; in vitro, enzyme of small intestinal mucous membrane; read-out: hydrolysis rate (the ratio of reducing sugars against total sugars)
Protocol: as §2

[26] = system: Enzyme of small intestinal mucous membrane; experiment: Digestion test in vitro, hydrolysis rate; assay type: in vitro ADME; conditions: conclusion from Table 1
Protocol: as §2

In the case of `OC[C@H]1O[C@@H](O[C@H]2[C@H](O)[C@@H](O)[C@H](O[C@H]3O[C@H](CO)[C@@H](O)[C@H](O)[C@H]3O)O[C@@H]2CO)[C@H](O)[C@@H](O)[C@H]1O` [lactoneotrehalose, O-β-D-galactopyranosyl-(1→4)-O-β-D-glucopyranosyl α-D-glucopyranoside], the Heat of dissolution [1] is reported as 20.0 cal/g, the “Fehling's reaction” value [2] is reported as “Negative” and the iodine coloration reaction [2] is reported as “Negative”. The mortality ([3]; 7 week-old dd mice, up to 5 g) was “no mouse died”, the toxicity ([3]; dd mice, conclusion) was “extremely low in toxicity” and the Solubility in solvents ([4]; 0.1N hydrochloric acid) was “Readily soluble”. The Solubility in solvents ([4]; 0.1N sodium hydroxide) was “Readily soluble”, the Solubility in solvents ([4]; chloroform) was “insoluble” and the Solubility in solvents ([4]; ethanol) was “scarcely soluble”. For the same molecule, the Solubility in solvents ([4]; ethyl acetate) was “insoluble”, the Solubility in solvents ([4]; methanol) was “scarcely soluble” and the Solubility in solvents ([4]; water) was “Readily soluble”. For the same molecule, the solubility ([4]; water, 25° C.) was 217 mg/mL (≈ 430 mM), the “acidity of aqueous solution of the crystal” value [5] was “neutral or slight acidity” and the metabolised [6] was 0%. For the same molecule, the metabolised [7] was 0%, the metabolised [8] was 0% and the hygroscopicity and deliquescence [9] was “Free of hygroscopicity and deliquescence”. For the same molecule, the “moisture content of crystals” value ([9]; Karl Fischer's method, predried in vacuo at 60° C. for 16 hours) was “less than 3.0%”, the “selective utilization by genus Bifidobacterium” value [10] was “selectively utilized at a relatively high-level by microorganisms of the genus Bifidobacterium” and the “Judgement of turbidity (A750 × 5)” value [11] was “- (less than 0.1)”. The “Judgement of turbidity (A750 × 5)” value [12] was “- (less than 0.1)”, the “Judgement of turbidity (A750 × 5)” value [13] was “- (less than 0.1)” and the “Judgement of turbidity (A750 × 5)” value [14] was “- (less than 0.1)”. For the same molecule, the “Judgement of turbidity (A750 × 5)” value [15] was “++ (0.2 or higher but less than 0.3)”, the “Judgement of turbidity (A750 × 5)” value [16] was “++ (0.2 or higher but less than 0.3)” and the “Judgement of turbidity (A750 × 5)” value [17] was “- (less than 0.1)”. The “Judgement of turbidity (A750 × 5)” value [18] was “++ (0.2 or higher but less than 0.3)”, the “Judgement of turbidity (A750 × 5)” value [19] was “- (less than 0.1)” and the “Judgement of turbidity (A750 × 5)” value [20] was “++ (0.2 or higher but less than 0.3)”. For the same molecule, the “Judgement of turbidity (A750 × 5)” value [21] was “± (0.1 or higher but less than 0.15)”, the “Judgement of turbidity (A750 × 5)” value [22] was “- (less than 0.1)” and the “Judgement of turbidity (A750 × 5)” value [23] was “++ (0.2 or higher but less than 0.3)”. The “Judgement of turbidity (A750 × 5)” value [24] was “- (less than 0.1)”, the metabolised [25] was 60.2% and the “main site of hydrolysis” value [26] was “mainly hydrolyzed by the enzyme from intestinal mucous membrane”.
With `OC[C@H]1O[C@@H](O[C@H]2[C@H](O)[C@@H](O)C(O)O[C@@H]2CO)[C@H](O)[C@@H](O)[C@H]1O` (stereo partly drawn) [Lactose, O-β-D-galactopyranosyl-(1→4)-D-glucose] the “Judgement of turbidity (A750 × 5)” value [11] was “+ (0.15 or higher but less than 0.2)”, the “Judgement of turbidity (A750 × 5)” value [12] was “- (less than 0.1)” and the “Judgement of turbidity (A750 × 5)” value [13] was “- (less than 0.1)”. The “Judgement of turbidity (A750 × 5)” value [14] was “± (0.1 or higher but less than 0.15)”, the “Judgement of turbidity (A750 × 5)” value [15] was “+++ (0.3 or higher)” and the “Judgement of turbidity (A750 × 5)” value [16] was “++ (0.2 or higher but less than 0.3)”. For the same molecule, the “Judgement of turbidity (A750 × 5)” value [17] was “+ (0.15 or higher but less than 0.2)”, the “Judgement of turbidity (A750 × 5)” value [18] was “++ (0.2 or higher but less than 0.3)” and the “Judgement of turbidity (A750 × 5)” value [19] was “++ (0.2 or higher but less than 0.3)”. The “Judgement of turbidity (A750 × 5)” value [20] was “++ (0.2 or higher but less than 0.3)”, the “Judgement of turbidity (A750 × 5)” value [21] was “+ (0.15 or higher but less than 0.2)” and the “Judgement of turbidity (A750 × 5)” value [22] was “± (0.1 or higher but less than 0.15)”. For the same molecule, the “Judgement of turbidity (A750 × 5)” value [23] was “++ (0.2 or higher but less than 0.3)” and the “Judgement of turbidity (A750 × 5)” value [24] was “- (less than 0.1)”.
With `O=C[C@H](O)[C@@H](O)[C@H](O)[C@H](O)CO` [Glucose, glucose] the “Judgement of turbidity (A750 × 5)” value [11] was “+ (0.15 or higher but less than 0.2)”, the “Judgement of turbidity (A750 × 5)” value [12] was “- (less than 0.1)” and the “Judgement of turbidity (A750 × 5)” value [13] was “± (0.1 or higher but less than 0.15)”. For the same molecule, the “Judgement of turbidity (A750 × 5)” value [14] was “++ (0.2 or higher but less than 0.3)”, the “Judgement of turbidity (A750 × 5)” value [15] was “++ (0.2 or higher but less than 0.3)” and the “Judgement of turbidity (A750 × 5)” value [16] was “++ (0.2 or higher but less than 0.3)”. The “Judgement of turbidity (A750 × 5)” value [17] was “++ (0.2 or higher but less than 0.3)”, the “Judgement of turbidity (A750 × 5)” value [18] was “++ (0.2 or higher but less than 0.3)” and the “Judgement of turbidity (A750 × 5)” value [19] was “+++ (0.3 or higher)”. The “Judgement of turbidity (A750 × 5)” value [20] was “++ (0.2 or higher but less than 0.3)”, the “Judgement of turbidity (A750 × 5)” value [21] was “+ (0.15 or higher but less than 0.2)” and the “Judgement of turbidity (A750 × 5)” value [22] was “± (0.1 or higher but less than 0.15)”. For the same molecule, the “Judgement of turbidity (A750 × 5)” value [23] was “++ (0.2 or higher but less than 0.3)”.
